# Read-outs that look alike come from different tables or passages of the source.
# Tests used:
# [1] = Second sacrificial agent testing protocol: paste air measurements with DDBS (0.0125 wt %) and rating; conditions: for B1 + 0.0125% DDBS + 0.05% SA (air entrainment) / B1 + 0.0125% DDBS + 0.1% SA (air entrainment): B1 FA/cement paste; for PCA + 0.1% SA (level of air entrainment by the candidate sacrificial agent): Portland cement paste (PCA); for SA Rating (0-4): sacrificial agent overall rating index; on Overall performance rating (second protocol rating): key: 0: Fail; 1: Poor; 2: Good; 3: Preferred; 4: Most preferred; on SA Rating (0-4): key: 0: Fail; 1: Poor; 2: Good; 3: Preferred; 4: Most preferred
# How it was run: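 Air entrainment was measured in cement pastes of fixed composition and fluidity. The candidate agent was tested alone at 0.1 wt % in a cement-only paste. It was also tested at 0.05 and 0.1 wt % in a fly ash (B1)-cement paste with DDBS, where air recovery was calculated against the same paste without agent.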
# [2] = Air entrainment in mortars (ASTM C185-88); conditions: for decrease of variability (RSD values): fly ash mortars, Air 30 combined with the SA versus Air 30 alone
# Procedure: Air entrainment were measured in mortars containing portland cement only (control), or a combination of portland cement and fly ash in the ratio 70:30;
# The mix compositions are given in the Table below and the measurements were performed according to standard protocols described in ASTM C185-88
# [3] = Hansch, C. et al. (1995), cited from earlier work
# [4] = 30:70 fly ash B1 (LOI 5.01%):cement mortar, 0.002 wt % Air 30 alone or +0.05 wt % SA
# [5] = 30:70 fly ash B1 (LOI 5.01%):cement mortar, 0.005 wt % Air 40 alone or +0.05 wt % SA
# [6] = 30:70 fly ash C1 (LOI 0.70%):cement mortar, 0.002 wt % Air 30 alone or +0.05 wt % SA
# [7] = 30:70 fly ash C1 (LOI 0.70%):cement mortar, 0.005 wt % Air 40 alone or +0.05 wt % SA
# [8] = 30:70 fly ash C2 (LOI 3.04%):cement mortar, 0.002 wt % Air 30 alone or +0.05 wt % SA
# [9] = 30:70 fly ash C2 (LOI 3.04%):cement mortar, 0.005 wt % Air 40 alone or +0.05 wt % SA
# [10] = 30:70 fly ash C3 (LOI 2.54%):cement mortar, 0.002 wt % Air 30 alone or +0.05 wt % SA
# [11] = 30:70 fly ash C3 (LOI 2.54%):cement mortar, 0.005 wt % Air 40 alone or +0.05 wt % SA
# [12] = 30:70 fly ash D (LOI […]):cement mortar, 0.002 wt % Air 30 alone or +0.05 wt % SA
# [13] = 30:70 fly ash D (LOI […]):cement mortar, 0.005 wt % Air 40 alone or +0.05 wt % SA
# [14] = 30:70 fly ash H1 (LOI 8.45%):cement mortar, 0.002 wt % Air 30 alone or +0.05 wt % SA
# [15] = 30:70 fly ash H1 (LOI 8.45%):cement mortar, 0.005 wt % Air 40 alone or +0.05 wt % SA
# [16] = 30:70 fly ash M1 (LOI […]):cement mortar, 0.002 wt % Air 30 alone or +0.05 wt % SA
# [17] = 30:70 fly ash M1 (LOI […]):cement mortar, 0.005 wt % Air 40 alone or +0.05 wt % SA
# [18] = 30:70 fly ash M2 (LOI 8.78%):cement mortar, 0.002 wt % Air 30 alone or +0.05 wt % SA
# [19] = 30:70 fly ash M2 (LOI 8.78%):cement mortar, 0.005 wt % Air 40 alone or +0.05 wt % SA
# [20] = 30:70 fly ash M3 (LOI 3.15%):cement mortar, 0.002 wt % Air 30 alone or +0.05 wt % SA
# [21] = 30:70 fly ash M3 (LOI 3.15%):cement mortar, 0.005 wt % Air 40 alone or +0.05 wt % SA
# [22] = 30:70 fly ash R (LOI 0.17%):cement mortar, 0.002 wt % Air 30 alone or +0.05 wt % SA
# [23] = 30:70 fly ash R (LOI 0.17%):cement mortar, 0.005 wt % Air 40 alone or +0.05 wt % SA
# [24] = PCA cement mortar, no fly ash, 0.0017 wt % Air 30 alone or +0.05 wt % SA
# [25] = PCA cement mortar, no fly ash, 0.004 wt % Air 40 alone or +0.05 wt % SA
# [26] = over the fly ash mortars of Table 12, 0.002 wt % Air 30 alone or +0.05 wt % SA
# [27] = over the fly ash mortars of Table 13, 0.005 wt % Air 40 alone or +0.05 wt % SA
structure (smiles),measurement,setting,value
"OCCOc1ccccc1 [EGPE, Ethylene glycol phenyl ether]",Overall performance rating (second protocol rating),[1],4
same,B1 + 0.0125% DDBS + 0.05% SA (air entrainment),[1],6.9
same,B1 + 0.0125% DDBS + 0.1% SA (air entrainment),[1],8.1
same,PCA + 0.1% SA (level of air entrainment by the candidate sacrificial agent),[1],1.5
same,SA Rating (0-4),[1],4
same,Air entrainment,[2]; [4],3.6
same,Air entrainment,"[2]; 30:70 fly ash B1 (LOI 5.01%):cement mortar, 0.005 wt % Air 40 +0.1 wt % EGPE",9.3
same,Air entrainment,[2]; [5],5.4
same,Air entrainment,[2]; [6],4.7
same,Air entrainment,"[2]; 30:70 fly ash C1 (LOI 0.70%):cement mortar, 0.005 wt % Air 40 +0.1 wt % EGPE",12.6
same,Air entrainment,[2]; [7],6.6
same,Air entrainment,[2]; [8],6.9
same,Air entrainment,"[2]; 30:70 fly ash C2 (LOI 3.04%):cement mortar, 0.005 wt % Air 40 +0.1 wt % EGPE",12.4
same,Air entrainment,[2]; [9],8.8
same,Air entrainment,[2]; [10],5.9
same,Air entrainment,"[2]; 30:70 fly ash C3 (LOI 2.54%):cement mortar, 0.005 wt % Air 40 +0.1 wt % EGPE",9.8
same,Air entrainment,[2]; [11],8.0
same,Air entrainment,[2]; [12],14.9
same,Air entrainment,"[2]; 30:70 fly ash D (LOI […]):cement mortar, 0.005 wt % Air 40 +0.1 wt % EGPE",13.2
same,Air entrainment,[2]; [13],12.8
same,Air entrainment,[2]; [14],3.1
same,Air entrainment,"[2]; 30:70 fly ash H1 (LOI 8.45%):cement mortar, 0.005 wt % Air 40 +0.1 wt % EGPE",5.7
same,Air entrainment,[2]; [15],3.1
same,Air entrainment,[2]; [16],5.4
same,Air entrainment,"[2]; 30:70 fly ash M1 (LOI […]):cement mortar, 0.005 wt % Air 40 +0.1 wt % EGPE",12.7
same,Air entrainment,[2]; [17],8.0
same,Air entrainment,[2]; [18],2.8
same,Air entrainment,"[2]; 30:70 fly ash M2 (LOI 8.78%):cement mortar, 0.005 wt % Air 40 +0.1 wt % EGPE",6.7
same,Air entrainment,[2]; [19],4.9
same,Air entrainment,[2]; [20],7.6
same,Air entrainment,"[2]; 30:70 fly ash M3 (LOI 3.15%):cement mortar, 0.005 wt % Air 40 +0.1 wt % EGPE",18.3
same,Air entrainment,[2]; [21],10.2
same,Air entrainment,[2]; [22],13.5
same,Air entrainment,"[2]; 30:70 fly ash R (LOI 0.17%):cement mortar, 0.005 wt % Air 40 +0.1 wt % EGPE",15.2
same,Air entrainment,[2]; [23],13.5
same,Air entrainment,[2]; [24],14.0
same,Air entrainment,"[2]; PCA cement mortar, no fly ash, 0.004 wt % Air 40 +0.1 wt % EGPE",16.2
same,Air entrainment,[2]; [25],14.9
same,decrease of variability (RSD values),[2],approximately 50%
same,Average of air entrained,[2]; [26],6.8%
same,Average of air entrained,"[2]; over the fly ash mortars of Table 13, 0.005 wt % Air 40 +0.1 wt % EGPE",12%
same,Average of air entrained,[2]; [27],8.1%
same,Experimental LogKow,[3],1.16
same,Experimental LogKow,[3]; listed as 2-Phenoxyethanol,Experimental LogKow: 1.16
"O=S(=O)([O-])c1ccc2ccccc2c1.[Na+] [NS, Sodium 2-Naphthalene sulfonate]",Overall performance rating (second protocol rating),[1],3
same,B1 + 0.0125% DDBS + 0.05% SA (air entrainment),[1],4.4
same,B1 + 0.0125% DDBS + 0.1% SA (air entrainment),[1],5.3
same,PCA + 0.1% SA (level of air entrainment by the candidate sacrificial agent),[1],1.0
same,SA Rating (0-4),[1],3
same,Air entrainment,[2]; [4],4.0
same,Air entrainment,[2]; [5],5.6
same,Air entrainment,[2]; [6],4.3
same,Air entrainment,[2]; [7],7.2
same,Air entrainment,[2]; [8],5.9
same,Air entrainment,[2]; [9],7.5
same,Air entrainment,[2]; [10],4.8
same,Air entrainment,[2]; [11],7.8
same,Air entrainment,[2]; [12],11.4
same,Air entrainment,[2]; [13],12.6
same,Air entrainment,[2]; [14],2.7
same,Air entrainment,[2]; [15],3.0
same,Air entrainment,[2]; [16],5.8
same,Air entrainment,[2]; [17],8.2
same,Air entrainment,[2]; [18],2.8
same,Air entrainment,[2]; [19],5.0
same,Air entrainment,[2]; [20],6.9
same,Air entrainment,[2]; [21],10.0
same,Air entrainment,[2]; [22],12.0
same,Air entrainment,[2]; [23],13.7
same,Air entrainment,[2]; [24],13.4
same,Air entrainment,[2]; [25],14.8
same,decrease of variability (RSD values),[2],approximately 50%
same,Average of air entrained,[2]; [26],6.1%
same,Average of air entrained,[2]; [27],8.0%

# From patent publication US7892350B2, “Sacrificial agents for fly ash concrete” (Boral Material Technologies Inc., priority 2003, dated 2011)
